{"source": "patent US11802129B1", "about": "“Pyrido[3,4-b]indol-1-one compounds as anticancer agents” (KING FAISAL UNIVERSITY, priority 2023, dated 2023)", "key": {"[1]": {"system": "Leukemia P388", "assay": "In vitro cytotoxic activity (MTT) assay, Leukemia P388", "assay_type": "cell-based", "settings": "Mus musculus; Murine Leukemia P388 cells, exposed for 96 hours", "description": "(§1) Compounds 1-10 were screened for their in vitro cytotoxic activity utilizing a 3-(4,5-dimethyl-thiazol-2-yl)-2,5-diphenyltetrazolium bromide (MTT) assay against selected cancer murine and human cancer cell lines (T. Mosmann, J. Immunol. Meth., 1983, 65, 55-63). The cells were cultured at 37° C. in RMPI1640 medium supplemented with 10% fetal bovine serum, 50 IU/mL penicillin, and 50 μg/mL streptomycin in a 5% CO2 incubator. All cells were sub-cultured 3 times/week by trypsinisation. Viable cells were seeded and allowed to adhere for 12 h before a test drug was added in 96-well plates at an initial density of 1.0×10^5 cells/mL. Tumour cell lines were separately exposed to various concentrations of the tested compounds followed by incubation at a temperature of 37° C. during 4 days inside a medium of fresh RMPI 1640. Cells were subsequently incubated at 37° C. using MTT at 0.5 mg/mL during 4 h. After removal of supernatant, formazan crystals were dissolved in isopropanol and the optical density was measured at 570 nm. CX-4945 has been used as a positive control."}, "[2]": {"system": "B16 melanoma", "assay": "In vitro cytotoxic activity (MTT) assay, B16 melanoma", "assay_type": "cell-based", "settings": "Mus musculus; Murine B16 melanoma cells, exposed for 96 hours", "description": "as §1"}, "[3]": {"system": "Colon C38 adenocarcinoma", "assay": "In vitro cytotoxic activity (MTT) assay, Colon C38 adenocarcinoma", "assay_type": "cell-based", "settings": "Mus musculus; Murine Colon C38 adenocarcinoma cells, exposed for 96 hours", "description": "as §1"}, "[4]": {"system": "PC3 (prostate)", "assay": "In vitro cytotoxic activity (MTT) assay, PC3", "assay_type": "cell-based", "settings": "Prostate cell; Human PC3 (prostate) cells, exposed for 96 hours", "description": "as §1"}, "[5]": {"system": "HCT116 (colon)", "assay": "In vitro cytotoxic activity (MTT) assay, HCT116", "assay_type": "cell-based", "settings": "HCT-116; Human HCT116 (colon) cells, exposed for 96 hours", "description": "as §1"}, "[6]": {"system": "A375 (melanoma)", "assay": "In vitro cytotoxic activity (MTT) assay, A375", "assay_type": "cell-based", "settings": "A-375; Human A375 (melanoma) cells, exposed for 96 hours", "description": "as §1"}, "[7]": {"system": "H1299 (lung)", "assay": "In vitro cytotoxic activity (MTT) assay, H1299", "assay_type": "cell-based", "settings": "NCI-H1299; Human H1299 (lung) cells, exposed for 96 hours", "description": "as §1"}, "[8]": {"system": "MIAPaCa-2 (pancreas)", "assay": "In vitro cytotoxic activity (MTT) assay, MIAPaCa-2", "assay_type": "cell-based", "settings": "MIA PaCa-2; Human MIAPaCa-2 (pancreas) cells, exposed for 96 hours", "description": "as §1"}, "[9]": {"system": "HL60 (leukemia)", "assay": "In vitro cytotoxic activity (MTT) assay, HL60", "assay_type": "cell-based", "settings": "HL-60; Human HL60 (leukemia) cells, exposed for 96 hours", "description": "as §1"}, "[10]": {"system": "MCF7 (breast)", "assay": "In vitro cytotoxic activity (MTT) assay, MCF7", "assay_type": "cell-based", "settings": "Human MCF7 (breast) cells, exposed for 96 hours", "description": "as §1"}, "[11]": {"system": "MDA-MB-231 (breast)", "assay": "In vitro cytotoxic activity (MTT) assay, MDA-MB-231", "assay_type": "cell-based", "settings": "Human MDA-MB-231 (breast) cells, exposed for 96 hours", "description": "as §1"}, "[12]": {"biological_target": "T1, CK2 (Homo sapiens, UniProt P68400)", "T1 construct": "purchased Upstate Biotechnology, Lake Placid, NY, USA", "T1 sequence (P68400 whole entry)": "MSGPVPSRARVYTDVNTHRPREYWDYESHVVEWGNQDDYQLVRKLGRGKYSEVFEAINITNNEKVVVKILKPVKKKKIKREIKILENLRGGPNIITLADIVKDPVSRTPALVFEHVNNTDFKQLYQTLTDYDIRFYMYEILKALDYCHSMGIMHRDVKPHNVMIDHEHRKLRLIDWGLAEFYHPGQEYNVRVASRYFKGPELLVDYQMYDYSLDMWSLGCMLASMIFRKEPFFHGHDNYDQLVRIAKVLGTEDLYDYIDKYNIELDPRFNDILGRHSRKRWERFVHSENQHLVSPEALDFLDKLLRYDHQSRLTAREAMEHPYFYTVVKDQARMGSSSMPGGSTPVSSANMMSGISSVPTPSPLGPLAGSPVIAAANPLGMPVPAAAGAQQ", "assay": "In vitro CK2 inhibitory assay (CK2 assay kit)", "assay_type": "biochemical", "settings": "CK2 assay kit (Upstate Biotechnology)", "description": "CK2 activity was assessed by using a CK2 assay kit (Upstate Biotechnology, Lake Placid, NY, USA) according to the manufacturer's instructions [T. Tiganis, C. M. House, B. E. Kemp, Arch. Biochem. Biophys. 1996,325, 289-294]."}}, "data": [{"smiles": "O=C(O)c1ccc2[nH]c3c(=O)[nH]cc(Nc4cccc(Cl)c4)c3c2c1", "note": "[Example 3, 4-((3-chlorophenyl)amino)-1-oxo-2,9-dihydro-1H-pyrido[3,4-b]indole-6-carboxylic acid]", "values": [{"measurement": "IC50", "setting": "[1]", "value": 5.5, "unit": "µM"}, {"measurement": "IC50", "setting": "[2]", "value": 6.8, "unit": "µM"}, {"measurement": "IC50", "setting": "[3]", "value": 4.4, "unit": "µM"}, {"measurement": "IC50", "setting": "[4]", "value": 2.6, "unit": "µM"}, {"measurement": "IC50", "setting": "[5]", "value": 3.3, "unit": "µM"}, {"measurement": "IC50", "setting": "[6]", "value": 4.4, "unit": "µM"}, {"measurement": "IC50", "setting": "[7]", "value": 2.1, "unit": "µM"}, {"measurement": "IC50", "setting": "[8]", "value": 5.7, "unit": "µM"}, {"measurement": "IC50", "setting": "[9]", "value": 6.3, "unit": "µM"}, {"measurement": "IC50", "setting": "[10]", "value": 7.5, "unit": "µM"}, {"measurement": "IC50", "setting": "[11]", "value": 6.6, "unit": "µM"}, {"measurement": "IC50", "setting": "[12]", "value": 0.005, "unit": "µM"}]}]}
